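Growth conditions: 96-well plates. Treatment: test compound, 48 hours, 5 concentrations. Analysis: linear interpolation between bracketing concentrations; unreached endpoints set to highest concentration. The concentration for 50% growth inhibition is given as GI50.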 Active and inactive are the calls of the source. No stated cut-off is given here; in the data, active = GI50 up to about 1.1 µM and inactive = higher. Where a SMILES comes first, the peptide text is derived from it. The star is where a group is joined. OSu = O=C1CCC(=O)N1O*; OBn = c1ccc(CO*)cc1; Bn = c1ccc(C*)cc1
Columns and labels:
Assay in all cases: NCI tumour cell line growth inhibition, 48 h
HOP-62 = system: HOP-62
NCI-H23 = system: NCI-H23
ACHN = system: ACHN
786-0 = system: 786-0
M14 = system: M14
DU-145 = system: DU-145
CAKI-1 = system: CAKI-1
SN12C = system: SN12C
EKVX = system: EKVX
Malme-3M = system: Malme-3M
IGROV-1 = system: IGROV-1
HCT-15 = system: HCT-15
OVCAR-8 = system: OVCAR-8
MOLT-4 = system: MOLT-4
NCI-H226 = system: NCI-H226
MDA-MB-435 = system: MDA-MB-435
SNB-19 = system: SNB-19
SF-268 = system: SF-268
LOX IMVI = system: LOX IMVI
HL-60 = system: HL-60

SMILES | GI50 (HOP-62) | GI50 (NCI-H23) | GI50 (ACHN) | GI50 (786-0) | GI50 (M14) | GI50 (DU-145) | GI50 (CAKI-1) | GI50 (SN12C) | GI50 (EKVX) | GI50 (Malme-3M) | GI50 (IGROV-1) | GI50 (HCT-15) | GI50 (OVCAR-8) | GI50 (MOLT-4) | GI50 (NCI-H226) | GI50 (MDA-MB-435) | GI50 (SNB-19) | GI50 (SF-268) | GI50 (LOX IMVI) | GI50 (HL-60)
Cc1cc2c(c(C(=O)NCC(=O)N[C@@H](C)C(=O)OCc3ccccc3)c1)Oc1c(cc(C)cc1C(=O)NCC(=O)N[C@@H](C)C(=O)OCc1ccccc1)S2 | 71.3 µM (inactive) | > 100 µM (inactive) | > 100 µM (inactive) | > 100 µM (inactive) | > 100 µM (inactive) | > 100 µM (inactive) | > 100 µM (inactive) | > 100 µM (inactive) | > 100 µM (inactive) | 16.1 µM (inactive) | 99.1 µM (inactive) | > 100 µM | > 100 µM (inactive) | 78 µM (inactive) | > 100 µM (inactive) | > 100 µM (inactive) | > 100 µM (inactive) | 37.2 µM (inactive) |  | 
NC(=O)N/N=C(\Cc1nc2ccc(C(=O)c3ccccc3)cc2nc1O)C(=O)Nc1ccc(Br)cc1 | > 100 µM (inactive) | > 100 µM (inactive) | > 100 µM (inactive) | > 100 µM (inactive) | > 100 µM (inactive) |  | > 100 µM (inactive) | > 100 µM (inactive) | > 100 µM (inactive) | > 100 µM (inactive) | > 100 µM (inactive) | > 100 µM | > 100 µM (inactive) | > 100 µM (inactive) | 86.3 µM (inactive) |  | > 100 µM (inactive) | > 100 µM (inactive) | > 100 µM (inactive) | > 100 µM (inactive)
CCOC(=O)c1c(NC(=S)NCc2ccccc2)sc2c1CCN(C)C2 | > 100 µM (inactive) | 65.5 µM (inactive) | 89.5 µM (inactive) |  | > 100 µM (inactive) | 64.1 µM (inactive) | > 100 µM (inactive) | 42.7 µM (inactive) | 78 µM (inactive) |  | 33 µM (inactive) | 68.1 µM | 82.2 µM (inactive) | 20.4 µM (inactive) | > 100 µM (inactive) |  | > 100 µM (inactive) | 64 µM (inactive) |  | 17.4 µM (inactive)
CCc1cccc(C)c1NC(=O)CCc1nnc(S)[nH]1 | > 100 µM (inactive) | > 100 µM (inactive) | > 100 µM (inactive) | > 100 µM (inactive) | > 100 µM (inactive) |  | > 100 µM (inactive) | > 100 µM (inactive) | > 100 µM (inactive) | > 100 µM (inactive) | > 100 µM (inactive) | > 100 µM | > 100 µM (inactive) | > 100 µM (inactive) | > 100 µM (inactive) |  | > 100 µM (inactive) | > 100 µM (inactive) | > 100 µM (inactive) | > 100 µM (inactive)
Cc1c(-c2coc(-c3ccccc3)n2)c(=O)n(-c2ccccc2)n1C | > 100 µM (inactive) | > 100 µM (inactive) | > 100 µM (inactive) | > 100 µM (inactive) | > 100 µM (inactive) |  | 0.184 µM (active) | > 100 µM (inactive) |  | 98.6 µM (inactive) | > 100 µM (inactive) | > 100 µM | 44.6 µM (inactive) | 25.6 µM (inactive) | 94.4 µM (inactive) |  | > 100 µM (inactive) | > 100 µM (inactive) | > 100 µM (inactive) | 76.7 µM (inactive)
CCC(=O)N(c1ccccc1)C(C)CN1CCC(O)(c2cccc(C(F)(F)F)c2)CC1 (stereo not drawn) | 21.5 µM (inactive) | 21.4 µM (inactive) | 36.2 µM (inactive) | 18.5 µM (inactive) | 16.1 µM (inactive) |  | > 100 µM (inactive) | 37.9 µM (inactive) | 31.8 µM (inactive) |  | 59.2 µM (inactive) | 30.6 µM | 38.1 µM (inactive) | 17.9 µM (inactive) | 30.2 µM (inactive) | 20.2 µM (inactive) | > 100 µM (inactive) |  | 18.9 µM (inactive) | 17.8 µM (inactive)
CN1CCCNCCN(CCc2ccccn2)CCCN(C)CC1 | > 100 µM (inactive) | > 100 µM (inactive) | > 100 µM (inactive) | 24.2 µM (inactive) | > 95.7 µM (inactive) |  | > 100 µM (inactive) | > 100 µM (inactive) | > 91.4 µM (inactive) | > 100 µM (inactive) | > 100 µM (inactive) | > 43.5 µM | > 100 µM (inactive) | > 100 µM (inactive) | > 100 µM (inactive) |  | > 100 µM (inactive) | > 100 µM (inactive) | > 50.1 µM (inactive) | > 48.8 µM (inactive)
CC(C)CC(NC(=O)C(N)CCC(=O)OCc1ccccc1)C(=O)NC(COCc1ccccc1)C(=O)NC(Cc1ccccc1)C(=O)ON1C(=O)CCC1=O (stereo not drawn) (H-E(OBn)LS(Bn)F-OSu; configuration not given here) |  | 26.4 µM (inactive) | 31.6 µM (inactive) | 39.1 µM (inactive) | 33.4 µM (inactive) | 27.7 µM (inactive) | 28.8 µM (inactive) | 29.8 µM (inactive) | 32.1 µM (inactive) | 29.2 µM (inactive) | 23.4 µM (inactive) |  | 31.6 µM (inactive) | 25.5 µM (inactive) |  | 33 µM (inactive) | 30.5 µM (inactive) | 48.3 µM (inactive) | 18.2 µM (inactive) | 

Source: ChEMBL document CHEMBL1201862, “PubChem BioAssay data set” (2004)
